Laboratory results as given in patent US10947188B2, “Small molecule ferroptosis inducers” (THE TRUSTEES OF COLUMBIA UNIVERSITY IN THE CITY OF NEW YORK, priority 2016, dated 2021).

Key:
[1] = test system: HT-1080 cells; experiment: Cell viability assay (Alamar Blue), lethal compounds with or without modulators; type: cell-based; details: HT-1080 cells; cotreatment
Description: 1,000 cells per 36 μl were seeded in each well in 384-well plates. Lethal compounds were dissolved, and a twofold, 12-point dilution series was prepared in DMSO. Compound solutions were further diluted with media at 1:25, and 4 μl per well of the diluted solutions was added to cell cultures immediately after cells were seeded. […] When other cell-death-modulating compounds (100 nM sodium selenite, 1 μM cerivastatin, 100 μg/mL mevalonic acid) were used in cotreatments, they were supplemented to cell culture for 24 h before lethal compounds were added to cell culture, after which cells were further incubated for 24 h at 37° C. under 5% CO2. On the day of the viability measurement, we added 10 μl per well of 50% Alamar Blue diluted in media (Life Technologies) and further incubated the cells at 37° C. for 6 h. Fluorescence intensity (excitation/emission: 530/590) was measured with a Victor 3 plate reader (PerkinElmer), and the normalized viability was calculated as VL=(IL−I0)/(IV−I0), where VL, I0, IV, and IL are the normalized viability and the raw fluorescence intensities from the wells containing media, cells treated with a vehicle (negative control), and cells with the lethal compound (L), respectively. When the effect of a chemical modulator (M) on L was calculated, we instead used the equation VL|M=(IM,L−I0)/(IM,V−I0), where VL|M, IM,L and IM,V are the normalized viability, and fluorescence intensity from cells treated with […], respectively. The viability was typically measured in biological triplicate unless otherwise specified. A representative dose-response curve, the mean and standard error of normalized viability from one replicate were plotted. […]

[2] = test system: HT-1080 or BJeLR cells; experiment: Analysis of ROS generation (H2-DCFDA flow cytometry); type: cell-based
Description: Grew 200,000 HT-1080 or BJeLR cells in six-well plates at 37° C. for 16 h. Cells were treated with test compounds, trypsinized, pelleted, and washed once with PBS. For lipophilic or aqueous ROS detection, cells were re-suspended in Hanks' Balanced Salt Solution (HBSS; Life Technologies) containing test compounds as well as C11-BODIPY(581/591) (2 μM) or H2-DCFDA (25 μM), respectively (Life Technologies), and incubated for 10 min at 37° C. Cells were then pelleted, re-suspended in 500 μL HBSS, strained through a 40-μm cell strainer (BD Falcon), and analyzed using a BD Accuri C6 flow cytometer (BD Biosciences). Both dyes were measured in the FL1 channel. Experiments were done in biological triplicates.

[3] = test system: HT-1080; experiment: Modulatory profiling: Alamar Blue viability, lethal compound cotreated with death modulator (EC50, AUC); type: cell-based; parameters: AUC, modulator HT.3MA / AUC, modulator HT.ALLN / AUC HT.ATA / AUC HT.ActD / AUC HT.BHA / AUC HT.BHT / AUC HT.BocD / AUC HT.CHX / AUC HT.Co2+ / AUC HT.DPQ / AUC HT.EGTA / AUC HT.Lmim / AUC HT.NAD+ / AUC HT.Nec-1 / AUC HT.SP600125 / AUC HT.TLCK / AUC HT.U0126: unit not given beside the values; details: for EC50: Homo sapiens, HT-1080, 48 h, 48 h
[4] = test system: BJeLR; experiment: as above; type: cell-based, human; parameters: AUC, modulator BJ.Gd3+ / AUC, modulator BJ.LNAME / AUC, modulator BJ.Lmin / AUC, modulator BJ.3MA / AUC, modulator BJ.ALLN / AUC, modulator BJ.Boc D / AUC, modulator BJ.CHX / AUC, modulator BJ.Co2+ / AUC, modulator BJ.Nec-1 / AUC, modulator BJ.Pepstatin / AUC, modulator BJ.TLCK / AUC, modulator BJ.atoc / AUC, modulator BJ.trolox / AUC, modulator BJ.zVAD: unit not given beside the values; details: for EC50: Homo sapiens, BJeLR, 48 h
[5] = test system: BJeLR, DRD, BJeHLT, and BJeH; experiment: Viability of four engineered BJ cell lines (HRAS G12V selectivity); type: cell-based, human; details: 48 h

## N/C(Cc1ccc(Cl)cc1)=N\OC(=O)c1cccc2ccccc12 [CIL70]
[1]
  effect of ferroptosis inhibitors (α-tocopherol, deferoxamine) on lethality: strongly suppressed by ferroptosis inhibitors
[2]
  ROS accumulation detected using H2-DCFDA: induced ROS accumulation
[3]; HT-1080, modulator ATA
  AUC HT.ATA: −0.004378
[3]; HT-1080, modulator ActD
  AUC HT.ActD: −0.02914
[3]; HT-1080, modulator BHA
  AUC HT.BHA: 0.1062
[3]; HT-1080, modulator BHT
  AUC HT.BHT: −0.03541
[3]; HT-1080, modulator BocD
  AUC HT.BocD: −0.03004
[3]; HT-1080, modulator CHX
  AUC HT.CHX: −0.02631
[3]; HT-1080, modulator Co2+
  AUC HT.Co2+: 0.01978
[3]; HT-1080, modulator CspA
  AUC HT.CspA: −0.0468
[3]; HT-1080, modulator DPQ
  AUC HT.DPQ: 0.02696
[3]; HT-1080, modulator EGTA
  AUC HT.EGTA: 0.01851
[3]; HT-1080, modulator Gd3+
  AUC HT.Gd3+: −0.01357
[3]; HT-1080, modulator LNAME
  AUC HT.LNAME: 0.005993
[3]; HT-1080, modulator Lmim
  AUC HT.Lmim: 0.2198
[3]; HT-1080, modulator NAD+
  AUC HT.NAD+: 0.04321
[3]; HT-1080, modulator NMMA
  AUC HT.NMMA: −0.005818
[3]; HT-1080, modulator atoc
  HT.atoc (AUC): 0.2733
[3]; HT-1080, modulator bCarotene
  HT.bCarotene (AUC): −0.001707
[3]; HT-1080, modulator deferox
  HT.deferox (AUC): 0.2561
[3]; HT-1080, modulator digoxin
  HT.digoxin (AUC): −0.1366
[3]; HT-1080, modulator trolox
  HT.trolox (AUC): 0.1205
[3]; HT-1080, modulator zVAD
  HT.zVAD (AUC): 0.002272
[3]; HT-1080 and BJeLR
  effect of ferroptosis inhibitors (iron chelators and lipophilic antioxidants) on lethality in modulatory profiling: suppression by canonical ferroptosis inhibitors
[3]; HT-1080, DMSO
  EC50: 4.44 µM
[3]; HT-1080, cotreated with MEK inh U0126
  EC50: 10.3 µM
[3]; HT-1080, cotreated with antioxidant Atoc
  EC50: 32.2 µM
[3]; HT-1080, cotreated with antioxidant BHA
  EC50: 13.3 µM
[3]; HT-1080, cotreated with antioxidant BHT
  EC50: 6.5 µM
[3]; HT-1080, cotreated with antioxidant Trolox
  EC50: 11.1 µM
[3]; HT-1080, cotreated with iron-chelator Deferoxamine
  EC50: 157 µM
[3]; HT-1080, cotreated with iron-chelator Lmim
  EC50: 47.8 µM
[4]; BJeLR cells, lethal compound cotreated with modulator 3MA, modulatory profile value (AUC)
  AUC, modulator BJ.3MA: 0.1014
[4]; BJeLR cells, lethal compound cotreated with modulator ALLN, modulatory profile value (AUC)
  AUC, modulator BJ.ALLN: −0.07036
[4]; BJeLR cells, lethal compound cotreated with modulator Boc D, modulatory profile value (AUC)
  AUC, modulator BJ.Boc D: 0.002412
[4]; BJeLR cells, lethal compound cotreated with modulator CHX, modulatory profile value (AUC)
  AUC, modulator BJ.CHX: 0.1304
[4]; BJeLR cells, lethal compound cotreated with modulator Co2+, modulatory profile value (AUC)
  AUC, modulator BJ.Co2+: −0.0004925
[4]; BJeLR cells, lethal compound cotreated with modulator DPQ, modulatory profile value (AUC)
  AUC, modulator BJ.DPQ: 0.02973
[4]; BJeLR cells, lethal compound cotreated with modulator Gd3+, modulatory profile value (AUC)
  AUC, modulator BJ.Gd3+: 0.04884
[4]; BJeLR cells, lethal compound cotreated with modulator LNAME, modulatory profile value (AUC)
  AUC, modulator BJ.LNAME: −0.006027
[4]; BJeLR cells, lethal compound cotreated with modulator Lmin/NAD+, modulatory profile value (AUC)
  AUC, modulator BJ.Lmin/NAD+: 0.2633
[4]; BJeLR cells, lethal compound cotreated with modulator Lmin, modulatory profile value (AUC)
  AUC, modulator BJ.Lmin: 0.2062
[4]; BJeLR cells, lethal compound cotreated with modulator NAD+, modulatory profile value (AUC)
  AUC, modulator BJ.NAD+: 0.03108
[4]; BJeLR cells, lethal compound cotreated with modulator NMMA, modulatory profile value (AUC)
  AUC, modulator BJ.NMMA: −0.008547
[4]; BJeLR cells, lethal compound cotreated with modulator Nec-1, modulatory profile value (AUC)
  AUC, modulator BJ.Nec-1: 0.1293
[4]; BJeLR cells, lethal compound cotreated with modulator Pepstatin, modulatory profile value (AUC)
  AUC, modulator BJ.Pepstatin: 0.07715
[4]; BJeLR cells, lethal compound cotreated with modulator TLCK, modulatory profile value (AUC)
  AUC, modulator BJ.TLCK: 0.06301
[4]; DMSO
  EC50: 1.76 µM
[4]; cotreated with Lmim_NAD
  EC50: 14.8 µM
[4]; cotreated with antioxidant Trolox
  EC50: 7.1 µM
[4]; cotreated with antioxidant atoc
  EC50: 18.6 µM
[4]; cotreated with iron-chelator Lmim
  EC50: 13.1 µM
[5]
  oncogenic RAS selectivity in the BJ engineered cell line series: did not exhibit oncogenic RAS selectivity
